The values that follow come from patent publication US20250352541A1, “THERAPEUTIC FOR CANCER REFRACTORY TO IMMUNE CHECKPOINT INHIBITOR” (Sumitomo Pharma Co., Ltd., priority 2022, published 2025).

One assay concerns ES-2 cells. Nature of the assay: Cell growth suppression experiment. The class given is cell-based. The procedure: ES-2 cells were obtained from the American Type Culture Collection (ATCC). These cells were cultured at 37° C. in the presence of 5% CO2 in a 10% fetal bovine serum, 1% penicillin/streptomycin containing McCoy's 5a medium.
500 cells were seeded for each well in a 384-well plate, and the evaluated compound was added so that the final concentration of DMSO would be 0.1% to culture the cells for 2 days. After completion of the culture, the cell viability rate was calculated using CellTiter-Glo® 3D Reagent (Promega, G968B).
The results of cell growth suppression test on representative compounds of the present disclosure are listed in the following table based on the ranking of I, IT, III, IV, and V (1000 nM<I, 1000 nM>TI>300 nM, 300 nM>III>100 nM, 100 nMV>IV>30 nM, 30 nM>V).

The target in a further assay is CHK1 (Homo sapiens (Human), UniProt O14757). Nature of the assay: CHK1 inhibitory activity test (IMAP TR-FRET).
Sequence of CHK1 (O14757 whole entry): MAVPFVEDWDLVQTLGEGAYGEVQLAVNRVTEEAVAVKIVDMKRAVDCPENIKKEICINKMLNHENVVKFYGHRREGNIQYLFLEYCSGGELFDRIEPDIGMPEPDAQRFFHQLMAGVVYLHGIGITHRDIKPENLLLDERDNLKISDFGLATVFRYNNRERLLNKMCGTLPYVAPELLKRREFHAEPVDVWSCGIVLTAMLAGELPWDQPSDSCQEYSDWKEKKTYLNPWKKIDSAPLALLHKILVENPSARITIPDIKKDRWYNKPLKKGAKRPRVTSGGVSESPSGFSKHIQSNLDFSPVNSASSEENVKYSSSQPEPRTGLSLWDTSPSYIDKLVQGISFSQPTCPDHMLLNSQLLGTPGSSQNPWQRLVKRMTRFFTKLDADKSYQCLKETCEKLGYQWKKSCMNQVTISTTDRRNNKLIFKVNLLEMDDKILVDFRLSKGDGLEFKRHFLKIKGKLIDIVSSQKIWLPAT

For `COc1cncc(OCCCN)c1-c1cc(Nc2cnc(C#N)cn2)n[nH]1` [Example 3, 5-({5-[3-(3-aminopropoxy)-5-methoxypyridin-4-yl]-1H-pyrazol-3-yl}amino)pyrazine-2-carbonitrile], the “cell growth suppression effect compared with prexasertib” value with ES-2 cells is “excellent cell growth suppression effect that is equivalent to that of prexasertib”. Besides, on CHK1, the 50% inhibitory concentration (IC50) turned out to be 0.22 nM and the “effect of suppressing CHK1 activity compared with prexasertib” value is on record as “more potent effect of suppressing CHK1 activity than prexasertib”.
As to `COc1cncc(OCC2(C)CNC2)c1-c1cc(Nc2cnc(C#N)cn2)n[nH]1` [Example 25, 5-[(5-{3-methoxy-5-[(3-methylazetidin-3-yl)methoxy]pyridin-4-yl}-1H-pyrazol-3-yl)amino]pyrazine-2-carbonitrile], the “cell growth suppression effect compared with prexasertib” value with ES-2 cells was “excellent cell growth suppression effect that is equivalent to that of prexasertib”. On CHK1, the half-maximal inhibitory concentration (IC50) is 0.74 nM.
On to `COc1cncc(OCC[C@H](C)N)c1-c1cc(Nc2cnc(C#N)cn2)n[nH]1` [Example 10, 5-[(5-{3-[(3S)-3-aminobutoxy]-5-methoxypyridin-4-yl}-1H-pyrazol-3-yl)amino]pyrazine-2-carbonitrile], for which, on CHK1, the half-inhibitory concentration (IC50) stood at 0.3 nM and the “effect of suppressing CHK1 activity compared with prexasertib” value is given as “more potent effect of suppressing CHK1 activity than prexasertib”.
`CNCCCOc1cncc(OC)c1-c1cc(Nc2cnc(C#N)cn2)n[nH]1` [Example 31, 5-[(5-{3-methoxy-5-[3-(methylamino)propoxy]pyridin-4-yl}-1H-pyrazol-3-yl)amino]pyrazine-2-carbonitrile]: in the assay on ES-2 cells, the “cell growth suppression effect compared with prexasertib” value was “excellent cell growth suppression effect that is equivalent to that of prexasertib”. This compound also came in with a half-inhibitory concentration (IC50) at CHK1 of 0.75 nM.
For the compound `COc1cncc(O[C@@H]2CCC[C@H](N)C2)c1-c1cc(Nc2cnc(C#N)cn2)n[nH]1` [Example 19, 5-{[5-(3-{[(1R,3S)-3-aminocyclohexyl]oxy}-5-methoxypyridin-4-yl)-1H-pyrazol-3-yl]amino}pyrazine-2-carbonitrile], the “cell growth suppression effect compared with prexasertib” value in the assay on ES-2 cells was “excellent cell growth suppression effect that is equivalent to that of prexasertib”. Moreover, at CHK1, the IC50 was found to be 0.26 nM and the “effect of suppressing CHK1 activity compared with prexasertib” value is “more potent effect of suppressing CHK1 activity than prexasertib”.
Consider `COc1cncc(OC[C@@H](C)CN)c1-c1cc(Nc2cnc(C#N)cn2)n[nH]1` [Example 27], for which the “cell growth suppression effect compared with prexasertib” value with ES-2 cells is “excellent cell growth suppression effect that is equivalent to that of prexasertib”. The 50% inhibitory concentration (IC50) on CHK1 turned out to be 3.46 nM.
Take `COc1cncc(O[C@H](C)C2(O)CNC2)c1-c1cc(Nc2cnc(C#N)cn2)n[nH]1` [Example 34, 5-[(5-{3-[(1R)-1-(3-hydroxyazetidin-3-yl)ethoxy]-5-methoxypyridin-4-yl}-1H-pyrazol-3-yl)amino]pyrazine-2-carbonitrile]: inhibition against CHK1 was half-maximal at 1.82 nM (IC50).
In the case of `COc1nccc(OCC2(O)CNC2)c1-c1cc(Nc2cnc(C#N)cn2)n[nH]1` [Example 7, 5-[(5-{4-[(3-hydroxyazetidin-3-yl)methoxy]-2-methoxypyridin-3-yl}-1H-pyrazol-3-yl)amino]pyrazine-2-carbonitrile], on CHK1, half-maximal inhibition (IC50) was put at 0.21 nM and the “effect of suppressing CHK1 activity compared with prexasertib” value is on record as “more potent effect of suppressing CHK1 activity than prexasertib”.
Consider `COc1cncc(OCC2(C(F)F)CNC2)c1-c1cc(Nc2cnc(C#N)cn2)n[nH]1` [Example 26, 5-{[5-(3-{[3-(difluoromethyl)azetidin-3-yl]methoxy}-5-methoxypyridin-4-yl)-1H-pyrazol-3-yl]amino}pyrazine-2-carbonitrile], for which the “cell growth suppression effect compared with prexasertib” value in the assay with ES-2 cells is given as “excellent cell growth suppression effect that is equivalent to that of prexasertib”. In addition, on CHK1, half-maximal inhibition (IC50) required 0.14 nM and the “effect of suppressing CHK1 activity compared with prexasertib” value is “more potent effect of suppressing CHK1 activity than prexasertib”.
Take `COc1cncc(OCC2CNC2)c1-c1cc(Nc2cnc(C#N)cn2)n[nH]1` [Example 18, 5-({5-[3-(azetidin-3-yl)methoxy-5-methoxypyridin-4-yl]-1H-pyrazol-3-yl}amino)pyrazine-2-carbonitrile]: at CHK1, 0.51 nM corresponded to half-maximal inhibition (IC50) and the “effect of suppressing CHK1 activity compared with prexasertib” value is “more potent effect of suppressing CHK1 activity than prexasertib”.
Consider `COc1nccc(OCC2(C)CNC2)c1-c1cc(Nc2cnc(C#N)cn2)n[nH]1` [Example 6, 5-[(5-{2-methoxy-4-[(3-methylazetidin-3-yl)methoxy]pyridin-3-yl}-1H-pyrazol-3-yl)amino]pyrazine-2-carbonitrile], for which the “cell growth suppression effect compared with prexasertib” value in the assay on ES-2 cells is “excellent cell growth suppression effect that is equivalent to that of prexasertib”. On CHK1, the IC50 was 0.27 nM and the “effect of suppressing CHK1 activity compared with prexasertib” value is recorded as “more potent effect of suppressing CHK1 activity than prexasertib”.
Consider `COc1cncc(OCC2(CN)CC2)c1-c1cc(Nc2cnc(C#N)cn2)n[nH]1` [Example 11, 5-{[5-(3-{[1-(aminomethyl)cyclopropyl]methoxy}-5-methoxypyridin-4-yl)-1H-pyrazol-3-yl]amino}pyrazine-2-carbonitrile], for which, in the assay with ES-2 cells, the “cell growth suppression effect compared with prexasertib” value is given as “excellent cell growth suppression effect that is equivalent to that of prexasertib”. At CHK1, the IC50 was 0.18 nM and the “effect of suppressing CHK1 activity compared with prexasertib” value was “more potent effect of suppressing CHK1 activity than prexasertib”.
In the case of `COc1cncc(OC[C@@H](O)CN)c1-c1cc(Nc2cnc(C#N)cn2)n[nH]1` [Example 14, 5-[(5-{3-[(2S)-3-amino-2-hydroxypropoxy]-5-methoxypyridin-4-yl}-1H-pyrazol-3-yl)amino]pyrazine-2-carbonitrile], on CHK1, it took 0.22 nM to reach half-maximal inhibition (IC50) and the “effect of suppressing CHK1 activity compared with prexasertib” value is reported as “more potent effect of suppressing CHK1 activity than prexasertib”.
On to `COc1cncc(O[C@@H]2CC[C@@H](N)C2)c1-c1cc(Nc2cnc(C#N)cn2)n[nH]1` [Example 32, 5-{[5-(3-{[(1R,3R)-3-aminocyclopentyl]oxy}-5-methoxypyridin-4-yl)-1H-pyrazol-3-yl]amino}pyrazine-2-carbonitrile], for which the “cell growth suppression effect compared with prexasertib” value in the assay on ES-2 cells is “excellent cell growth suppression effect that is equivalent to that of prexasertib”.
As for `COc1cc(Cl)nc(OCCCN)c1-c1cc(Nc2cnc(C#N)cn2)n[nH]1` [Example 2, 5-({5-[2-(3-aminopropoxy)-6-chloro-4-methoxypyridin-3-yl]-1H-pyrazol-3-yl}amino)pyrazine-2-carbonitrile], on CHK1, the IC50 was 0.22 nM and the “effect of suppressing CHK1 activity compared with prexasertib” value is “more potent effect of suppressing CHK1 activity than prexasertib”.
As to `COc1cncc(OCC[C@@H](C)N)c1-c1cc(Nc2cnc(C#N)cn2)n[nH]1` [Example 9, 5-[(5-{3-[(3R)-3-aminobutoxy]-5-methoxypyridin-4-yl}-1H-pyrazol-3-yl)amino]pyrazine-2-carbonitrile], on CHK1, it took 0.24 nM to reach half-maximal inhibition (IC50) and the “effect of suppressing CHK1 activity compared with prexasertib” value is reported as “more potent effect of suppressing CHK1 activity than prexasertib”.
As to `N#Cc1cnc(Nc2cc(-c3c(OCF)cncc3OCCCN)[nH]n2)cn1` [Example 24, 5-({5-[3-(3-aminopropoxy)-5-(fluoromethoxy)pyridin-4-yl]-1H-pyrazol-3-yl}amino)pyrazine-2-carbonitrile], on CHK1, the IC50 turned out to be 0.3 nM and the “effect of suppressing CHK1 activity compared with prexasertib” value is “more potent effect of suppressing CHK1 activity than prexasertib”.
